Here are results for 20 compounds from patent US9567345B2, “Pharmaceutically active pyrazolo-triazine derivatives” (LEAD DISCOVERY CENTER GMBH, priority 2012, dated 2017).

Assay type in all cases: biochemical
One assay addresses CDK9/Cyclin T1 (Homo sapiens, UniProt P50750). The assay is described as follows: CDK9 Enzymatic Activity Assay (Lance Kinase Activity Assay, FRET). Put shortly: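 CDK9/cyclin T1 phosphorylation of a ULight-MBP peptide was run for 1 h at room temperature in pH 7.5 HEPES buffer with MgCl2, EGTA, DTT and Tween-20. It was followed by 1 h with Eu-anti-phospho-MBP antibody (4 nM) in EDTA detection buffer. TR-FRET loss gave IC50 from 8-point, 1:3 sigmoidal dose-response curves.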

Another assay has as its target CDK7/CycH/Mat1 (Homo sapiens, UniProt P50613). In words: CDK7 Enzymatic Activity Assay (Lance Kinase Activity Assay, FRET). Put shortly: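 Ulight-MBP peptide phosphorylation by CDK7/CycH/Mat1 in HEPES 50 mM pH 7.5, MgCl2, EGTA, DTT, Tween-20; 1 h at room temperature, then EDTA stop with Eu-anti-phospho-MBP antibody for 1 h and TR-FRET read. Compounds in 8-point 1:3 DMSO series; IC50 from sigmoidal dose-response fit.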

Another assay deals with T1, CDK2/CycA (Homo sapiens, UniProt P24941).
T1 construct: purchased Proqinase
In words: CDK2 Enzymatic Activity Assay (Lance Kinase Activity Assay, FRET). Here is the method: This protocol describes how the Lance Kinase Activity Assay was performed to determine IC50 values of compounds of general formula (I) against CDK/Cyclin complexes. The principle behind this enzymatic assay is based upon the phosphorylation of the Ulight-Peptide Substrat. It is detected by using a specific EU-labeled anti-phospho peptide antibody.
Binding of an inhibitor to the kinase prevents phosphorylation of the Ulight-MBP Substrat, resulting in a loss of FRET.
CDK2 Enzymatic Activity Assay
The compounds of general formula (I) exemplary summarized in Table 1 were diluted from a 10 mM DMSO stock solution 1:10 in a total volume of 15 μl DMSO. This compound predilution was then serial diluted 1:3 over 8 steps in DMSO and briefly spun down. Each compound solution was now diluted 1:20 in Enzymatic Buffer (HEPES: 50 mM, pH: 7.5; MgCl2: 10 mM; EGTA: 1 mM; DTT: 2 mM; Tween-20: 0.01%), mixed thoroughly and spun down.
For positive controls, 2 μl of DMSO working solution were mixed with 6 μl CDK2/CycA/substrate working solution and 2 μl ATP working solution. Positive and negative controls were calculated from at least 8 different wells. The 384 well plates were mixed in a Teleshaker plate mixer (Beckman Coulter, Brea, Calif., USA) at 2000 rpm for 40 sec, and incubated for 1 h at room temperature before addition of 10 μl LANCE Detection Buffer (EDTA: […]; Eu-Anti-P-MBP: 4 nM) per well. Plates were mixed in a Teleshaker plate mixer (Beckman Coulter, Brea, Calif., USA) at 2000 rpm for 40 sec, followed by incubation with Detection Buffer for 1 h, and reading. […] IC50 values were determined from the sigmoidal dose response curves with the software Quattro Workflow (Quattro GmbH, Munich, Germany).

The mark [1] stands for this setting: Table 5B, class symbols per IC50 [nM] ranges of b581, read-out: CDK9: Selectivity of CDK7 inhibition over CDK9 inhibition.
Where [2] appears, read: CDK7/CycH/Mat1, 25 μM ATP final, class ranges, read-out: CDK7: IC50 [nM] for CDK7 inhibition.
Setting [3] is: Table 5B, class symbols per IC50 [nM] ranges of b581, read-out: CDK2: Selectivity of CDK7 inhibition over CDK2 inhibition.

Molecules are shown by their SMILES. Where two headings read alike, the source gives them in different places.

Sequence of CDK7/CycH/Mat1 (P50613 whole entry): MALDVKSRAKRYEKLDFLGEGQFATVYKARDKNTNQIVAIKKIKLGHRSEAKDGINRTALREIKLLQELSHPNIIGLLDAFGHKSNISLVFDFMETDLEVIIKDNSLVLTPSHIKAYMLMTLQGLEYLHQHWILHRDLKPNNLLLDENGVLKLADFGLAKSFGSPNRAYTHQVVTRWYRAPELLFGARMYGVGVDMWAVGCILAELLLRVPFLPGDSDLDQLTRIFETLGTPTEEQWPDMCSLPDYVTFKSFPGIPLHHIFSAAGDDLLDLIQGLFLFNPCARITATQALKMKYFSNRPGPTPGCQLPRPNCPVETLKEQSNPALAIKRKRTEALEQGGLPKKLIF
Sequence of CDK9/Cyclin T1 (P50750 whole entry): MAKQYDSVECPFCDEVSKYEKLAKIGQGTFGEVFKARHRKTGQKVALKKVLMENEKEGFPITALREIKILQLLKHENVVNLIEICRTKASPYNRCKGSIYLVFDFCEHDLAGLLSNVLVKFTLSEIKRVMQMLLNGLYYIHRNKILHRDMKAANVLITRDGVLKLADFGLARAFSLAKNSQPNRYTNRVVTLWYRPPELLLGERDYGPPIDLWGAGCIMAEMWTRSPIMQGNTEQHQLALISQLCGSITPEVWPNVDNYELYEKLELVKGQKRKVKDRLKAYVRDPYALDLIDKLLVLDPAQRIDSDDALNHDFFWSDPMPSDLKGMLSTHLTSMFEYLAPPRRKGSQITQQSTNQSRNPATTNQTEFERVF
Sequence of CDK9/Cyclin T1 (O60563 whole entry partner): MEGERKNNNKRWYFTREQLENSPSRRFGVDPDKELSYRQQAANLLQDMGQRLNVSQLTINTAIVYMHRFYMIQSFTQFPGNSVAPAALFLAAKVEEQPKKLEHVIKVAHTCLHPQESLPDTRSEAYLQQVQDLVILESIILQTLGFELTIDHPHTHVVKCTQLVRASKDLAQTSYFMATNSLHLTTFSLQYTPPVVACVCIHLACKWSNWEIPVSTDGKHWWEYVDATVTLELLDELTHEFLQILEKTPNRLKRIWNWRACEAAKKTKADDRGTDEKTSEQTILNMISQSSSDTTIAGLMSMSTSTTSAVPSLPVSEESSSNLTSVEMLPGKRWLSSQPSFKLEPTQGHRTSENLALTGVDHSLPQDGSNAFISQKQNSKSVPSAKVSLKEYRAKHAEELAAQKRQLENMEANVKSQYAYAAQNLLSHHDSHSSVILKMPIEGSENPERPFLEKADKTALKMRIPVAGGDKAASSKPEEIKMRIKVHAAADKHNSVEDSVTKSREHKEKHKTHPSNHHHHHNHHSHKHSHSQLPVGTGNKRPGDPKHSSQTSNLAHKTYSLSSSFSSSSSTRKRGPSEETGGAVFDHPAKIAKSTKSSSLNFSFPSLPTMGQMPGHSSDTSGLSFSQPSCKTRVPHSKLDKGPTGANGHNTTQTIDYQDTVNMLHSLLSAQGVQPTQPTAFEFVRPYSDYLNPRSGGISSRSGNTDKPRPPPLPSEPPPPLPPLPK

For the compound `CC(C)c1cnn2c(NCc3cccc4c3cnn4C)nc(O[C@@H]3CCCNC3)nc12` [(VII-33), (R)-8-isopropyl-N-((1-methyl-1H-indazol-4-yl)methyl)-2-(piperidin-3-yloxy)pyrazolo[1,5-a][1,3,5]triazin-4-amine], the figures for the IC50 on CDK9/Cyclin T1 (setting [1]), on CDK7/CycH/Mat1 (setting [2]) and at CDK2/CycA (setting [3]) were below 50 nM, below 5 nM and below 50 nM, respectively.
As for `CC(C)c1cnn2c(NCc3ccccc3-c3ccccn3)nc(O[C@@H]3CCCNC3)nc12` [(VII-34), (R)-8-isopropyl-2-(piperidin-3-yloxy)-N-(2-(pyridin-2-yl)benzyl)pyrazolo[1,5-a][1,3,5]triazin-4-amine], the values for the IC50 on CDK9/Cyclin T1 (setting [1]), at CDK7/CycH/Mat1 (setting [2]) and at CDK2/CycA (setting [3]) were 500 to 2500 nM, below 5 nM and 50 to 500 nM, respectively.
Turning to `CC(C)c1cnn2c(NCc3cccc4cccnc34)nc(O[C@@H]3CCCNC3)nc12` [(VII-35), (R)-8-isopropyl-2-(piperidin-3-yloxy)-N-(quinolin-8-ylmethyl)pyrazolo[1,5-a][1,3,5]triazin-4-amine], the IC50 at CDK9/Cyclin T1 (setting [1]) was 50 to 500 nM; on CDK7/CycH/Mat1 (setting [2]) it was below 5 nM; at CDK2/CycA (setting [3]), 50 to 500 nM.
As for `CC(C)c1cnn2c(NCc3cccc4[nH]ncc34)nc(O[C@@H]3CCCNC3)nc12` [(VII-36), (R)-N-((1H-indazol-4-yl)methyl)-8-isopropyl-2-(piperidin-3-yloxy)pyrazolo[1,5-a][1,3,5]triazin-4-amine], the IC50 on CDK9/Cyclin T1 (setting [1]) was below 50 nM; on CDK7/CycH/Mat1 (setting [2]) it was below 5 nM; on CDK2/CycA (setting [3]), below 50 nM.
On to `CC(C)c1cnn2c(NCc3ccccc3-c3nnn(C)n3)nc(O[C@@H]3CCCNC3)nc12` [(VII-37), (R)-8-isopropyl-N-(2-(2-methyl-2H-tetrazol-5-yl)benzyl)-2-(piperidin-3-yloxy)pyrazolo[1,5-a][1,3,5]triazin-4-amine], for which the IC50 at CDK9/Cyclin T1 (setting [1]) is above 2500 nM; at CDK7/CycH/Mat1 (setting [2]), below 5 nM; at CDK2/CycA (setting [3]), below 50 nM.
`CC(C)c1cnn2c(NCc3ccccc3S(=O)(=O)N(C)C)nc(O[C@@H]3CCCNC3)nc12` [(VII-38), (R)-2-(((8-isopropyl-2-(piperidin-3-yloxy)pyrazolo[1,5-a][1,3,5]triazin-4-yl)amino)methyl)-N,N-dimethylbenzenesulfonamide]: the IC50 is 500 to 2500 nM on CDK9/Cyclin T1 (setting [1]); 500 to 2500 nM at CDK9/Cyclin T1 (Table 7, read-out: IC50 CDK9); below 5 nM at CDK7/CycH/Mat1 (setting [2]); below 5 nM at CDK7/CycH/Mat1 (Table 7, read-out: IC50 CDK7); 50 to 500 nM on CDK2/CycA (setting [3]); 50 to 500 nM at CDK2/CycA (Table 7, read-out: IC50 CDK2). Moreover, the “Selectivity CDK7 over CDK9” value on CDK9/Cyclin T1 (Table 7) was determined as 2733 fold. Further, the “Selectivity CDK7 over CDK2” value on CDK2/CycA (Table 7) is recorded as 342 fold.
As for `CC(C)c1cnn2c(NCc3ccccc3N3CCCC3=O)nc(O[C@@H]3CCCNC3)nc12` [(VII-39), (R)-1-(2-(((8-isopropyl-2-(piperidin-3-yloxy)pyrazolo[1,5-a][1,3,5]triazin-4-yl)amino)methyl)phenyl)pyrrolidin-2-one], the values for the IC50 at CDK9/Cyclin T1 (setting [1]), on CDK7/CycH/Mat1 (setting [2]) and at CDK2/CycA (setting [3]) were above 2500 nM, below 5 nM and 50 to 500 nM, respectively.
Take `CC(C)c1cnn2c(NCc3cc(F)ccc3-n3cccn3)nc(O[C@@H]3CCCNC3)nc12` [(VII-41), (R)-N-(5-fluoro-2-(1H-pyrazol-1-yl)benzyl)-8-isopropyl-2-(piperidin-3-yloxy)pyrazolo[1,5-a][1,3,5]triazin-4-amine]: the values for the IC50 at CDK9/Cyclin T1 (setting [1]), at CDK7/CycH/Mat1 (setting [2]) and on CDK2/CycA (setting [3]) were 50 to 500 nM, below 5 nM and below 50 nM, respectively.
For the compound `CC(C)c1cnn2c(NCc3cccc(F)c3-n3cccn3)nc(O[C@@H]3CCCNC3)nc12` [(VII-42), (R)-N-(3-fluoro-2-(1H-pyrazol-1-yl)benzyl)-8-isopropyl-2-(piperidin-3-yloxy)pyrazolo[1,5-a][1,3,5]triazin-4-amine], the IC50 on CDK9/Cyclin T1 (setting [1]) is 50 to 500 nM; on CDK7/CycH/Mat1 (setting [2]), below 5 nM; at CDK2/CycA (setting [3]) it was below 50 nM.
As for `CC(C)c1cnn2c(NCc3ccc(F)cc3-n3cccn3)nc(O[C@@H]3CCCNC3)nc12` [(VII-43), (R)-N-(4-fluoro-2-(1H-pyrazol-1-yl)benzyl)-8-isopropyl-2-(piperidin-3-yloxy)pyrazolo[1,5-a][1,3,5]triazin-4-amine], the IC50 at CDK9/Cyclin T1 (setting [1]) was 50 to 500 nM; at CDK7/CycH/Mat1 (setting [2]), below 5 nM; on CDK2/CycA (setting [3]) it was below 50 nM.
For `CC(C)c1cnn2c(NCc3c(F)cccc3-n3cccn3)nc(O[C@@H]3CCCNC3)nc12` [(VII-44), (R)-N-(2-fluoro-6-(1H-pyrazol-1-yl)benzyl)-8-isopropyl-2-(piperidin-3-yloxy)pyrazolo[1,5-a][1,3,5]triazin-4-amine], the IC50 was above 2500 nM at CDK9/Cyclin T1 (setting [1]), below 5 nM on CDK7/CycH/Mat1 (setting [2]) and 50 to 500 nM at CDK2/CycA (setting [3]).
For the compound `CC(C)c1cnn2c(NCc3ccccc3-n3cc(Cl)cn3)nc(O[C@@H]3CCCNC3)nc12` [(VII-52), (R)-N-(2-(4-chloro-1H-pyrazol-1-yl)benzyl)-8-isopropyl-2-(piperidin-3-yloxy)pyrazolo[1,5-a][1,3,5]triazin-4-amine], the IC50 at CDK9/Cyclin T1 (setting [1]) is 50 to 500 nM; at CDK7/CycH/Mat1 (setting [2]), below 5 nM; on CDK2/CycA (setting [3]) it was 50 to 500 nM.
Consider `CC(C)c1cnn2c(NCc3ccccc3F)nc(OC3CCN(C)CC3)nc12` [(VII-56), N-(2-fluorobenzyl)-8-isopropyl-2-((1-methylpiperidin-4-yl)oxy)pyrazolo[1,5-a][1,3,5]triazin-4-amine], for which the IC50 at CDK9/Cyclin T1 (setting [1]) fell in the range of 50 to 500 nM; on CDK7/CycH/Mat1 (setting [2]), 5 to 10 nM; on CDK2/CycA (setting [3]) it was 500 to 2500 nM.
`CC(C)c1cnn2c(NCc3ccccc3C(F)(F)F)nc(OC3CCN(C)CC3)nc12` [(VII-58), 8-isopropyl-2-((1-methylpiperidin-4-yl)oxy)-N-(2-(trifluoromethyl)benzyl)pyrazolo[1,5-a][1,3,5]triazin-4-amine]: the IC50 at CDK9/Cyclin T1 (setting [1]) was above 2500 nM; at CDK7/CycH/Mat1 (setting [2]), 10 to 25 nM; on CDK2/CycA (setting [3]) it was below 50 nM.
Take `CC(C)c1cnn2c(NCc3ccccc3-n3ccnc3)nc(OC3CCN(C)CC3)nc12` [(VII-59), N-(2-(1H-imidazol-1-yl)benzyl)-8-isopropyl-2-((1-methylpiperidin-4-yl)oxy)pyrazolo[1,5-a][1,3,5]triazin-4-amine]: the IC50 at CDK9/Cyclin T1 (setting [1]) is above 2500 nM; at CDK7/CycH/Mat1 (setting [2]), below 5 nM; on CDK7/CycH/Mat1 (Table 6, read-out: IC50 CDK7), below 5 nM. In addition, the “Selectivity CDK7 over CDK9” value on CDK9/Cyclin T1 (Table 6) worked out at 9140 fold. For the same compound, the “Selectivity CDK7 over CDK2” value at CDK2/CycA (Table 6) stood at 3926 fold.
Consider `CC(C)c1cnn2c(NCc3cccc4ccccc34)nc(OC3CCN(C)CC3)nc12` [(VII-61), 8-isopropyl-2-((1-methylpiperidin-4-yl)oxy)-N-(naphthalen-1-ylmethyl)pyrazolo[1,5-a][1,3,5]triazin-4-amine], for which the values for the IC50 on CDK9/Cyclin T1 (setting [1]), on CDK7/CycH/Mat1 (setting [2]) and on CDK2/CycA (setting [3]) were 50 to 500 nM, 5 to 10 nM and 500 to 2500 nM, respectively.
As to `CC(C)c1cnn2c(NCc3ccccc3-c3cccs3)nc(OC3CCN(C)CC3)nc12` [(VII-65), 8-isopropyl-2-((1-methylpiperidin-4-yl)oxy)-N-(2-(thiophen-2-yl)benzyl)pyrazolo[1,5-a][1,3,5]triazin-4-amine], the results for the IC50 on CDK9/Cyclin T1 (setting [1]), on CDK7/CycH/Mat1 (setting [2]) and at CDK2/CycA (setting [3]) were above 2500 nM, below 5 nM and 50 to 500 nM, respectively.
As for `CC(C)c1cnn2c(NCc3ccccc3Cl)nc(OC3CCN(C)CC3)nc12` [(VII-68), N-(2-chlorobenzyl)-8-isopropyl-2-((1-methylpiperidin-4-yl)oxy)pyrazolo[1,5-a][1,3,5]triazin-4-amine], the IC50 was 50 to 500 nM on CDK9/Cyclin T1 (setting [1]), below 5 nM at CDK7/CycH/Mat1 (setting [2]) and 50 to 500 nM on CDK2/CycA (setting [3]).
As for `COc1ccccc1CNc1nc(OC2CCN(C)CC2)nc2c(C(C)C)cnn12` [(VII-71), 8-isopropyl-N-(2-methoxybenzyl)-2-((1-methylpiperidin-4-yl)oxy)pyrazolo[1,5-a][1,3,5]triazin-4-amine], the IC50 on CDK9/Cyclin T1 (setting [1]) was 50 to 500 nM; at CDK7/CycH/Mat1 (setting [2]), below 5 nM; on CDK2/CycA (setting [3]), 50 to 500 nM.
In the case of `CC(C)c1cnn2c(NCc3ccccc3OC(F)F)nc(OC3CCN(C)CC3)nc12` [(VII-72), N-(2-(difluoromethoxy)benzyl)-8-isopropyl-2-((1-methylpiperidin-4-yl)oxy)pyrazolo[1,5-a][1,3,5]triazin-4-amine], the IC50 at CDK9/Cyclin T1 (setting [1]) was 50 to 500 nM; on CDK7/CycH/Mat1 (setting [2]), below 5 nM; at CDK2/CycA (setting [3]), 50 to 500 nM.
